Molecules are shown by their SMILES.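 96-well plates; 48 h exposure; 5 concentrations. Endpoints by linear interpolation between flanking doses. Not reached: highest tested concentration assigned. TGI denotes the concentration required for complete inhibition of growth.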 Where only a bound is given, the exact number is not on record here.

Some test systems named below: A549 NSCLC; HCC-2998 colon; MDA-N; MOLT-4 leukemia; NCI-H522 lung; SK-MEL-5 melanoma; SNB-75 CNS; UACC-62 melanoma.
Common to all, as to assay: NCI-60 cell line screen, 48 h

With `C=CCN(CC=C)Cn1c(=S)sc2ccccc21`, the TGI in the experiment on A549 NSCLC was above 100 µM; in the experiment with HCC-2998 colon, above 100 µM; in the experiment with MDA-N, above 100 µM; with MOLT-4 leukemia, above 100 µM; in the experiment on NCI-H522 lung, 37.7 µM; with SK-MEL-5 melanoma, above 100 µM. The TGI with SNB-75 CNS and in the experiment on UACC-62 melanoma was above 100 µM each time.

`Cc1cc(-c2nc3ccccc3s2)ccc1NS(=O)(=O)O`: the TGI in the experiment on A549 NSCLC is above 100 µM; in the experiment with HCC-2998 colon, above 100 µM; in the experiment on MDA-N it was above 100 µM; with MOLT-4 leukemia it was above 100 µM; with NCI-H522 lung, above 67.3 µM; in the experiment with SK-MEL-5 melanoma, above 100 µM. For the same compound, the TGI in the experiment on SNB-75 CNS and with UACC-62 melanoma was above 100 µM in each case.

With `Cc1sc2nc3n(c(=O)c2c1C)N=CN(c1ccccc1)C3`, the TGI in the experiment on A549 NSCLC, with HCC-2998 colon, in the experiment with MDA-N, in the experiment on MOLT-4 leukemia, in the experiment with NCI-H522 lung and in the experiment on SK-MEL-5 melanoma was above 100 µM each time. The TGI in the experiment with SNB-75 CNS and in the experiment on UACC-62 melanoma was above 100 µM in each case.

With `Clc1cc(N/N=C(/c2ccccc2)c2ncccn2)ncn1`, the TGI with A549 NSCLC was 85.1 µM; in the experiment on HCC-2998 colon, above 100 µM; with MDA-N, above 100 µM; in the experiment on MOLT-4 leukemia, above 100 µM; in the experiment with NCI-H522 lung it was 5.51 µM; with SK-MEL-5 melanoma, above 100 µM. Besides, the TGI in the experiment with SNB-75 CNS was 74.4 µM; in the experiment on UACC-62 melanoma, above 100 µM.

`O=c1c2ccccc2[nH]c(=S)n1-c1ccc(N=Nc2cccc3c(O)cccc23)cc1`: the TGI in the experiment on A549 NSCLC, in the experiment on HCC-2998 colon, in the experiment with MDA-N, in the experiment on MOLT-4 leukemia, with NCI-H522 lung and in the experiment with SK-MEL-5 melanoma was above 100 µM each time. Besides, the TGI with SNB-75 CNS is above 100 µM; in the experiment on UACC-62 melanoma, 68 µM.

Regarding `c1cc2nnc1SCCSCCSc1ccc(nn1)SCCSCCS2`, the TGI in the experiment on A549 NSCLC, in the experiment with HCC-2998 colon, with MDA-N, in the experiment with MOLT-4 leukemia, in the experiment on NCI-H522 lung and with SK-MEL-5 melanoma was above 100 µM throughout. The TGI in the experiment with SNB-75 CNS was 77.3 µM; in the experiment with UACC-62 melanoma it was above 100 µM.

In the case of `Oc1ccccc1C(c1cc2c(cc1O)OCO2)N1CCOCC1` (configuration not stated), the TGI was 57.6 µM in the experiment on A549 NSCLC; 33.9 µM in the experiment with HCC-2998 colon; 37.6 µM in the experiment with MDA-N; 40.6 µM in the experiment on MOLT-4 leukemia; 24.3 µM with NCI-H522 lung; 31.7 µM in the experiment with SK-MEL-5 melanoma. Further, the values for the TGI with SNB-75 CNS and with UACC-62 melanoma were 32 µM and 32.3 µM, respectively.

`Cc1ccc(N=Nc2c3c(c(O)c4ccccc24)CCC(C)(C)O3)cc1`: the TGI was 31.8 µM in the experiment on A549 NSCLC; 34.3 µM in the experiment on HCC-2998 colon; 14.1 µM in the experiment with MDA-N; above 100 µM in the experiment with MOLT-4 leukemia; above 100 µM in the experiment with NCI-H522 lung; 15.7 µM in the experiment on SK-MEL-5 melanoma. Moreover, the results for the TGI with SNB-75 CNS and with UACC-62 melanoma were 36 µM and 28.1 µM, respectively.

As to `Cc1cn(C2CC(N)C(CN)O2)c(=O)[nH]c1=O` (configuration not stated), the TGI with A549 NSCLC, in the experiment on HCC-2998 colon, in the experiment with MDA-N, in the experiment on MOLT-4 leukemia, in the experiment on NCI-H522 lung and in the experiment with SK-MEL-5 melanoma was above 100 µM each time. The TGI in the experiment on SNB-75 CNS and in the experiment with UACC-62 melanoma was above 100 µM throughout.

As for `CCOC(=O)c1cc2c([N+](=O)[O-])c(NC(C)=O)ccc2s1`, the TGI with A549 NSCLC, in the experiment with HCC-2998 colon, in the experiment on MDA-N, with MOLT-4 leukemia, in the experiment with NCI-H522 lung and with SK-MEL-5 melanoma was above 100 µM throughout. Further, the TGI in the experiment with SNB-75 CNS is 94.1 µM; in the experiment with UACC-62 melanoma, above 100 µM.

Turning to `CCN(CC)CCn1c2cc3c(cc2c(=O)c2cccnc21)OCCO3`, the TGI in the experiment on A549 NSCLC, in the experiment on HCC-2998 colon, in the experiment on MDA-N, in the experiment on MOLT-4 leukemia, in the experiment with NCI-H522 lung and in the experiment on SK-MEL-5 melanoma was above 10 µM in each case. For the same compound, the TGI in the experiment on SNB-75 CNS and in the experiment on UACC-62 melanoma was above 10 µM throughout.

On to `COc1ccc2c(c1)c1c(n2CCN2CCOCC2)-c2ccccc2CC1`, for which the TGI is above 100 µM with A549 NSCLC; 41.2 µM in the experiment with HCC-2998 colon; above 100 µM in the experiment with MDA-N; 48 µM in the experiment with MOLT-4 leukemia; above 100 µM in the experiment with NCI-H522 lung; 46.3 µM in the experiment with SK-MEL-5 melanoma. In addition, the TGI in the experiment on SNB-75 CNS and with UACC-62 melanoma was above 100 µM in each case.

With `O=C(O)c1ccc(NC(c2ccccc2)c2ccc3cccnc3c2O)cc1` (configuration not stated), the TGI is above 100 µM in the experiment with A549 NSCLC; above 74.8 µM in the experiment on HCC-2998 colon; above 100 µM with MDA-N; above 42.6 µM in the experiment with MOLT-4 leukemia; 55.8 µM with NCI-H522 lung; 29.8 µM in the experiment with SK-MEL-5 melanoma. Also, the TGI with SNB-75 CNS stood at 56.7 µM; in the experiment on UACC-62 melanoma it was 36.7 µM.

On to `O=C1CC(O)c2c1csc2Br` (configuration not stated), for which the TGI with A549 NSCLC is above 100 µM; with HCC-2998 colon, 44 µM; in the experiment with MDA-N, 83.4 µM; in the experiment with MOLT-4 leukemia, 55.3 µM; with NCI-H522 lung it was 30.4 µM; with SK-MEL-5 melanoma it was above 100 µM. Moreover, the TGI in the experiment on SNB-75 CNS was above 100 µM; with UACC-62 melanoma it was 59 µM.

As to `COC(=O)C1=C(C(=O)OC)C2OC1C1C2C2(C)C(C)=C(C)C1(C)S2=O` (configuration not stated), the TGI in the experiment on A549 NSCLC was above 55.8 µM; in the experiment on HCC-2998 colon it was 38.3 µM; with MDA-N it was above 50.3 µM; in the experiment with MOLT-4 leukemia, above 100 µM; in the experiment on NCI-H522 lung, 6.49 µM; in the experiment on SK-MEL-5 melanoma, 19.2 µM. Besides, the TGI with SNB-75 CNS is 38.1 µM; in the experiment with UACC-62 melanoma, 26.1 µM.

Take `c1sc(NC2=NCCO2)c2c1CCCC2`: the TGI in the experiment with A549 NSCLC, in the experiment on HCC-2998 colon, in the experiment on MDA-N, with MOLT-4 leukemia, in the experiment on NCI-H522 lung and in the experiment with SK-MEL-5 melanoma was above 100 µM throughout. The TGI in the experiment with SNB-75 CNS and in the experiment with UACC-62 melanoma was above 100 µM each time.

In the case of `COc1ccc(N2C(=O)C3c4[nH]c5ccc([N+](=O)[O-])cc5c4C4CCC(C(C)(C)C)CC4C3C2=O)cc1` (configuration not stated), the TGI was above 100 µM in the experiment on A549 NSCLC; above 100 µM in the experiment with HCC-2998 colon; above 100 µM in the experiment with MDA-N; above 100 µM with MOLT-4 leukemia; above 100 µM with NCI-H522 lung; 33.8 µM in the experiment on SK-MEL-5 melanoma. For the same compound, the TGI with SNB-75 CNS and with UACC-62 melanoma was above 100 µM each time.

With `COc1ccc(Nc2c(C#N)c3n(c4ccccc24)c2ccccc2[n+]3C)cc1OC`, the TGI with A549 NSCLC is 14.9 µM; with HCC-2998 colon it was 13.7 µM; in the experiment with MDA-N it was 7.21 µM; in the experiment with MOLT-4 leukemia it was above 29.5 µM; in the experiment on NCI-H522 lung, 16 µM; with SK-MEL-5 melanoma, 15.5 µM. Further, the TGI in the experiment with SNB-75 CNS came out at 9.52 µM; in the experiment on UACC-62 melanoma, 12.5 µM.

For `Cc1ccc(S(=O)(=O)N2CCN3C(=O)c4ccccc4C32c2ccc(F)cc2)cc1` (configuration not stated), the TGI in the experiment with A549 NSCLC was above 100 µM; in the experiment with HCC-2998 colon, above 100 µM; with MDA-N, above 100 µM; with MOLT-4 leukemia it was 65.9 µM; in the experiment with NCI-H522 lung, above 100 µM; in the experiment with SK-MEL-5 melanoma it was 35.2 µM. In addition, the TGI with SNB-75 CNS and with UACC-62 melanoma was above 100 µM each time.

Turning to `COc1cc2oc(-c3ccc(O)cc3)c(OC3OC(C)C(O)C(O)C3O)c(=O)c2c(O)c1OC` (configuration not stated), the TGI with A549 NSCLC, with HCC-2998 colon, in the experiment with MDA-N, in the experiment on MOLT-4 leukemia, in the experiment with NCI-H522 lung and in the experiment on SK-MEL-5 melanoma was above 100 µM each time. The TGI with SNB-75 CNS and in the experiment on UACC-62 melanoma was above 100 µM in each case.

Turning to `O=c1[nH]cnc2c(C3OC(CO)C(O)C3O)c[nH]c12` (configuration not stated), the TGI with A549 NSCLC, in the experiment on HCC-2998 colon, with MDA-N, with MOLT-4 leukemia, in the experiment with NCI-H522 lung and in the experiment on SK-MEL-5 melanoma was above 100 µM throughout. Further, the TGI with SNB-75 CNS and in the experiment on UACC-62 melanoma was above 100 µM throughout.

With `Cc1ccc2c(c1C)CC1(Cc3c(ccc4c3CCC4)C1=O)C2=O` (configuration not stated), the TGI with A549 NSCLC, in the experiment with HCC-2998 colon, in the experiment with MDA-N, in the experiment with MOLT-4 leukemia, in the experiment on NCI-H522 lung and with SK-MEL-5 melanoma was above 100 µM in each case. Besides, the TGI in the experiment with SNB-75 CNS and in the experiment with UACC-62 melanoma was above 100 µM in each case.

Regarding `O=c1[nH]c2nc3ccccc3c(=O)n2/c1=C/c1ccc(O)cc1`, the TGI is above 100 µM in the experiment with A549 NSCLC; 69.9 µM in the experiment on HCC-2998 colon; above 100 µM in the experiment with MDA-N; above 100 µM in the experiment on MOLT-4 leukemia; above 100 µM with NCI-H522 lung; above 100 µM in the experiment on SK-MEL-5 melanoma. The TGI in the experiment on SNB-75 CNS and with UACC-62 melanoma was above 100 µM throughout.

Consider `COC(=O)C1(Cc2ccccc2)Cc2cc3c(cc2C1=O)CCC3` (configuration not stated), for which the TGI in the experiment with A549 NSCLC is above 100 µM; with HCC-2998 colon, 9.64 µM; with MDA-N it was 37.3 µM; in the experiment with MOLT-4 leukemia it was 43.1 µM; in the experiment on NCI-H522 lung, 64.2 µM; in the experiment with SK-MEL-5 melanoma it was 33 µM. Further, the TGI in the experiment on SNB-75 CNS and with UACC-62 melanoma was above 100 µM throughout.

For the origin of these results see PubChem BioAssay (NCI).
